These results are taken from patent US12582122B2, “Herbicidal compositions comprising clethodim” (BASF SE, priority 2024, dated 2026).

SMILES strings stand for the structures.

The subject of this test is Digitaria insularis (DIGIN). Description: Post-emergence application in field trials, herbicidal activity (damage 0-100% vs untreated control). In kind it is in vivo. Particulars: solo, post-emergence field trial, 21 DAT, 0.5% MSO; for % herbicidal activity A-1: 50 g ai/ha; for % herbicidal activity B: 240 g ai/ha. Here is the method: In the examples below, using the method of S. R. Colby (1967) “Calculating synergistic and antagonistic responses of herbicide combinations”, Weeds 15, p. 22ff., the value E, which is expected if the activity of the individual active compounds is only additive, was calculated:
[formula] • where • X=percent activity using active herbicide A at an application rate a; • Y=percent activity using active herbicide B (e.g. clethodim) at an application rate b; • E=expected activity (in %) by A+B at application rates a+b.
If the value found experimentally is higher than the value E calculated according to Colby, a synergistic effect is present.
On field test sites, natural weed infestation or seeded weeds were treated post-emergence of the weeds.
In the field trials, the weeds were treated as indicated below.
In the following experiments, the herbicidal activity for the individual herbicidal compositions (solo and mixture applications) was assessed at the indicated days after treatment (DAT). The assessments for the damage on undesired weeds caused by the composition was carried out using a scale from 0 to 100%, compared to the untreated control plants. Here, 0 means no damage and 100 means complete destruction of the plants.
Herbicide A-1 and clethodim were, together with addition of 0.5% MSO (methylated sed oil) as adjuvant, formulated in water as distribution medium (water volume 200 l/ha) and sprayed with commercial flat fan nozzles.

Consider `CCOC(=O)COc1ccccc1Oc1nc(-n2c(=O)cc(C(F)(F)F)n(C)c2=O)c(F)cc1Cl` [A-1, ethyl 2-[2-[[3-chloro-5-fluoro-6-[3-methyl-2,6-dioxo-4-(trifluoromethyl)pyrimidin-1-yl]-2-pyridyl]oxy]phenoxy]acetate], for which the “% herbicidal activity A-1” value runs as follows: (DIGIN height 5-15 cm) 57%; (DIGIN height 60-80 cm) 62%.

Consider `CCSC(C)CC1CC(=O)C(/C(CC)=N/OC/C=C/Cl)=C(O)C1` (stereo not shown) [B, clethodim], for which the “% herbicidal activity B” value is, setting by setting: (DIGIN height 5-15 cm) 68%; (DIGIN height 60-80 cm) 57%.
